In patent publication US8642656B2, “Calixarene-based peptide conformation mimetics, methods of use, and methods of making” (priority 2004, dated 2014):
Where two headings read alike, the source gives them in different places.

Key:
MA148 tumor vessels = assay: Histological analysis of microvessel density, anti-CD31 staining, MA148 tumors; assay type: in vivo, mice; settings: mean ± standard error, 20 images
Method: (§1) Immunohistochemistry was used to assess microvessel density and the extent of total cell apoptosis. Approximately, tumors of the same size and with no apparent necrosis were selected for processing. On the last day of treatment mice were sacrificed and tumors were excised. Tumor tissue was embedded in tissue freezing medium (Miles Inc, Elkart, Ind.) and shock frozen in liquid nitrogen. Sections of tissue (10 μm thickness) were prepared for immunohistochemical analysis. For this, tissue sections were brought to room temperature, air dried overnight, and then fixed in acetone for 10 minutes. Slides were allowed to air dry for at least 30 minutes and were washed three limes for 5 minutes each in phosphate-buffered saline (PBS, pH 7.4). Samples were then blocked with PBS containing 0.1% bovine serum albumin and 3% human serum albumin for at least 30 minutes at room temperature in a humidified box. Samples were subsequently incubated with phycoerytrin (PE)-conjugated monoclonal antibody to CD31 (PECAM-1) in a 1:50 dilution (Pharmigen, San Diego, Calif.) to stain for microvessel density.
(§2) Digital images were stored and processed using Adobe Photoshop (Adobe Inc., Mountain View Calif.). Quantification of microvessel density, were determined as described previously (Dings et al., Cancer Res 63, 382-385 (2003)). Statistical analysis was performed using the Student's t-test.

B16F10 tumor vessels = assay: Histological analysis of microvessel density, anti-CD31 staining, B16F10 tumors; assay type: in vivo, mice; settings: B16F10, 10 mg/kg; mean ± standard error, 20 images
Method: as §1, §2

fibroblasts = assay: Proliferation of fibroblasts (general cell toxicity check); assay type: cell-based
LPS from K. pneumoniae = assay: LPS neutralization assay (Limulus amoebocyte lysate, QCL-1000); assay type: biochemical, Klebsiella pneumoniae; settings: read-out: IC50 values (μM) for LPS binding, Klebsiella
In short: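 Neutralization of endotoxin was measured as loss of LAL proenzyme activation driven by 0.04 units LPS, read as pNA at 405-410 nm; IC50 from sigmoidal fit.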

Question: What does the source list for “5,11,17,23-Tetra-tert-butyl-25,27-bis(2-guanidinoethoxy)-26,28-dihydroxy calix[4]arene trifluoroacetic acid salt [Compound 27]”?
Answer: Branch Points (MA148 tumor vessels; MA148, 2.7 mg/kg): 1.1 ± 0.3 pixel counts per image; End Points (MA148 tumor vessels; MA148, 2.7 mg/kg): 32.7 ± 6.0 pixel counts per image; Vessel Density (MA148 tumor vessels; MA148, 2.7 mg/kg): 6046 ± 533 pixel counts per image; Vessel Length (MA148 tumor vessels; MA148, 2.7 mg/kg): 4.2 ± 0.6 pixel counts per image; Branch Points (MA148 tumor vessels; MA148, 10 mg/kg): 2.3 ± 0.6 pixel counts per image; End Points (MA148 tumor vessels; MA148, 10 mg/kg): 14.7 ± 2.2 pixel counts per image; Vessel Density (MA148 tumor vessels; MA148, 10 mg/kg): 7402 ± 763 pixel counts per image; Vessel Length (MA148 tumor vessels; MA148, 10 mg/kg): 5.0 ± 0.7 pixel counts per image; Branch Points (B16F10 tumor vessels): 3.5 ± 0.5 pixel counts per image; End Points (B16F10 tumor vessels): 35.2 ± 4.0 pixel counts per image; Vessel Density (B16F10 tumor vessels): 10743 ± 764 pixel counts per image; Vessel Length (B16F10 tumor vessels): 7.5 ± 0.6 pixel counts per image; IC50 (fibroblasts; read-out: concentration giving 50% growth inhibition, fibroblasts): ~20000 nM; IC50 (LPS from K. pneumoniae; Table 3, errors estimated ±30%): > 5 µM

Question: Which results are given for `CN(C)CCNC(=O)COc1c2cccc1Cc1cccc(c1OCC(=O)NCCN(C)C)Cc1cccc(c1OCC(=O)NCCN(C)C)Cc1cccc(c1OCC(=O)NCCN(C)C)C2` [Compound 40]?
Answer: Branch Points (MA148 tumor vessels; MA148, 2.4 mg/kg): 1.6 ± 0.3 pixel counts per image; End Points (MA148 tumor vessels; MA148, 2.4 mg/kg): 15.7 ± 2.1 pixel counts per image; Vessel Density (MA148 tumor vessels; MA148, 2.4 mg/kg): 7148 ± 844 pixel counts per image; Vessel Length (MA148 tumor vessels; MA148, 2.4 mg/kg): 5.3 ± 0.7 pixel counts per image; Branch Points (MA148 tumor vessels; MA148, 10 mg/kg): 1.0 ± 0.2 pixel counts per image; End Points (MA148 tumor vessels; MA148, 10 mg/kg): 23.0 ± 2.9 pixel counts per image; Vessel Density (MA148 tumor vessels; MA148, 10 mg/kg): 5112 ± 439 pixel counts per image; Vessel Length (MA148 tumor vessels; MA148, 10 mg/kg): 3.3 ± 0.5 pixel counts per image; Branch Points (B16F10 tumor vessels): 5.2 ± 0.7 pixel counts per image; End Points (B16F10 tumor vessels): 21.9 ± 2.6 pixel counts per image; Vessel Density (B16F10 tumor vessels): 10231 ± 1330 pixel counts per image; Vessel Length (B16F10 tumor vessels): 8.6 ± 1.2 pixel counts per image; concentration giving 50% growth inhibition, fibroblasts (fibroblasts): no delectable effects; IC50 (LPS from K. pneumoniae; Table 2): 1.5 µM; IC50 (LPS from K. pneumoniae; Table 3, errors estimated ±30%): 1.5 µM
